Experiment [1] has as its target Delta-type opioid receptor (Homo sapiens) (UniProt P41143). As to the kind of experiment: Binding affinity to human Delta-opioid receptor expressed in CHO cell membrane assessed as inhibition of [3H]DPDPE binding to DOR at 10 uM incubated for 60 mins by radioligand binding assay. The experiment is classed as cell membranes.
Experiment [2] deals with Kappa-type opioid receptor (Homo sapiens) (UniProt P41145). As to the kind of experiment: Potency index, ratio of SalA-VS-07 Ki to test compound Ki for Binding affinity to human Kappa-opioid receptor expressed in CHO cell membrane assessed as inhibition of [3H]-U69593 binding to KOR. The experiment is classed as cell membranes. The conditions noted are these: filed as agonist.

Experiment [3] shares this target. As to the kind of experiment: Agonist activity at human Kappa-opioid receptor expressed in human U2OS cells co-expressing enzyme acceptor tagged beta-arrestin2 fusion protein assessed as increase in beta-arrestin2 recruitment at 10 uM incubated for 180 mins by DiscoverX pathHunter express beta-arrestin2 assay. The experiment is classed as functional, cell-based.

The target is the same in experiment [4]. As to the kind of experiment: Binding affinity to human Kappa-opioid receptor expressed in CHO cell membrane assessed as inhibition of [3H]-U69593 binding to KOR incubated for 60 mins by radioligand binding assay. Format: cell membranes.
For experiment [5] the target is unchanged. As to the kind of experiment: Agonist activity at human Kappa-opioid receptor expressed in CHO cell membrane assessed as induction of [35S]GTPgammaS binding by measuring G protein activation incubated for 60 mins by liquid scintillation counting assay. Format: functional, cell membranes. (Binding of GTPγS marks nucleotide exchange on a G protein.)

Results on four molecules are retold here after ChEMBL document CHEMBL5576126, “Discovery of Novel, Selective, and Nonbasic Agonists for the Kappa-Opioid Receptor Determined by Salvinorin A-Based Virtual Screening” (J Med Chem, 2024).

Calls of active or inactive are those of the source. No cut-off for these calls is given here.

Chain of Kappa-type opioid receptor (Homo sapiens) (P41145 whole entry): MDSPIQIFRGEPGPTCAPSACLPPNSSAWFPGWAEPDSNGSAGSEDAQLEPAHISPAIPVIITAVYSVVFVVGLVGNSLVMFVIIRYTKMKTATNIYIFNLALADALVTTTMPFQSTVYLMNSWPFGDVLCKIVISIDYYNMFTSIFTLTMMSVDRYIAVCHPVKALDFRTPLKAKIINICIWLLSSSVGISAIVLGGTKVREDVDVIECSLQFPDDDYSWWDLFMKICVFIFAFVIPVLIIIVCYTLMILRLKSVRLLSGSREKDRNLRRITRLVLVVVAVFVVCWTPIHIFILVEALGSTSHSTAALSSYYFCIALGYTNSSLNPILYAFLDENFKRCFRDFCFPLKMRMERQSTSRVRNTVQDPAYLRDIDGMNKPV
Chain of Delta-type opioid receptor (Homo sapiens) (P41143 whole entry): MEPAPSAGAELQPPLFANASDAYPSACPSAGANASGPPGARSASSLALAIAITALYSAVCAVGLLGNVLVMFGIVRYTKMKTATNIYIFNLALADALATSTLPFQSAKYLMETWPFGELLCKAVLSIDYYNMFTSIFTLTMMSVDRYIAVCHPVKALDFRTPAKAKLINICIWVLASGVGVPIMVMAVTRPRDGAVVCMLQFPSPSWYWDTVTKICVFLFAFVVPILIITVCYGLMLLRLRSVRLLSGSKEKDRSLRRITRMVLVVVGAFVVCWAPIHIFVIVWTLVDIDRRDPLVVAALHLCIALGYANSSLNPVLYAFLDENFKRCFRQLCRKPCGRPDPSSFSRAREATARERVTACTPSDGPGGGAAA

Take `Cc1cc2n(n1)C1(CCN(C(=O)c3cccc(F)c3)CC1)CC(=O)N2CC1CC1`: the outcome in experiment [1] and in experiment [3] was inactive. Besides, the Ratio Ki in experiment [2] came to 6. For the same molecule, the Activity result in experiment [4] (filed as agonist) is “Dose-Dependent Effect”.

With `Cc1cc2n(n1)C1(CCN(C(=O)c3ccncc3)CC1)CC(=O)N2CC1CC1`, the outcome in experiment [5] was inactive.

Take `Cc1cc2n(n1)C1(CCN(C(=O)c3ccc(Cl)cc3)CC1)CC(=O)N2CC1CC1`: the outcome in experiment [1] and in experiment [3] was inactive. Also, in experiment [4] (filed as partial agonist), the Activity entry was “Dose-Dependent Effect”.

For `CCO[C@@]12Cc3c([nH]c4ccccc34)[C@]3(C)Oc4c(O)ccc5c4[C@@]31CCN(CC1CC1)C2C5`, the outcome in experiment [1] was Active.
